Measured values from US20230310330A1, “PEPTIDIC OLIGOMERS AND METHODS OF USING THE SAME” (BIOVENTURES, LLC, priority 2022, published 2023).
Read-outs that look alike come from different tables or passages of the source.

Legend:
vacuolar ATPase = experiment: Bafilomycin A1 block of FITC-labeled CPP translocation, flow cytometry; type: cell-based
Description: FIG. 15: Bafilomycin Al blocks CPP translocation. (A) FITC-labeled B6 and G6 are easily detected by flow cytometry.
Vacuolar ATPase aids in the transport to the interior of acidic organelles and BafA1 efficiently neutralizes the luminal pH, inhibits acidic hydrolases, and impairs the fusion among acidic organelles.

[1] = tested on: mouse 4T1 breast cancer cells
Experimental: Cells were incubated with varying concentrations for 48 hours, followed by CCK8 reagent. The absorbance at 450 nm was recorded.
Biocompatibility of the peptidic oligomers was characterized in a toxicity assay of the empty beta and gamma chains performed with mouse 4T1 breast cancer cells (FIG. 4). […] Cells were incubated with varying concentrations for 48 hours, followed by CCK8 reagent. The absorbance at 450 nm was recorded.

4T1 breast cancer cells = experiment: In vitro cell viability assay, CellTiter-Glo, 72 hours; type: cell-based, mouse; conditions: 4T1 cells
Experimental: The assay was run for 72 hours with the CellTiter-Glo assay to determine cell viability.

CO/C1=C\C(C)=C\[C@@H](C)[C@@H](O)[C@@H](C)C/C(C)=C/C=C/[C@H](OC)[C@@H]([C@@H](C)[C@@H](O)[C@H](C)[C@@]2(O)C[C@@H](O)[C@H](C)[C@@H](C(C)C)O2)OC1=O [Bafilomycin A1]
effect on FITC-labeled CPP binding and translocation (FITC signal) (vacuolar ATPase): blocked FITC-labeled CPP | effect on FITC-labeled CPP binding and translocation (FITC signal) (vacuolar ATPase; listed as BafA1): blocks B6-FITC binding and translocation

CC(C)(C)OC(=O)N[C@@H](CNC(=O)[C@H](CNC(=O)[C@H](CNC(=O)[C@H](CNC(=O)[C@H](CNC(=O)[C@H](CN)NC(=O)OC(C)(C)C)NC(=O)OC(C)(C)C)NC(=O)OC(C)(C)C)NC(=O)OC(C)(C)C)NC(=O)OC(C)(C)C)C(=O)O [B6]
cellular toxicity (number of viable cells) [1]: do not display cellular toxicity

C[S+]([O-])CCCCN=C=S (centres unmarked) [sulforaphane, D, L sulforaphane]
concentration showing significant activity (4T1 breast cancer cells): 10 mM

CC(C)(C)OC(=O)N[C@@H](CCNC(=O)[C@H](CCNC(=O)[C@H](CCNC(=O)[C@H](CCNC(=O)[C@H](CCNC(=O)[C@H](CCN)NC(=O)OC(C)(C)C)NC(=O)OC(C)(C)C)NC(=O)OC(C)(C)C)NC(=O)OC(C)(C)C)NC(=O)OC(C)(C)C)C(=O)O [G6]
cellular toxicity (number of viable cells) [1]: do not display cellular toxicity
